Converted amounts (≈) assume the structure as drawn. Where two headings read alike, the source gives them in different places.
Columns and labels:
[1] = molecular target: PBP1a (Klebsiella pneumoniae, UniProt A0A0H3GZF1); parameters: method as in PMID 29712652; settings: read-out: IC50, PBP1a; value in parentheses; K. pneumoniae ATCC 43816; cited from earlier work
[2] = molecular target: T1, PBP2 (Pseudomonas aeruginosa, UniProt Q9X6V3); parameters: method as in PMID 18250190; settings: value in parentheses; P. aeruginosa PAO1; cited from earlier work
T1 construct: Five microliters of total bacterial membrane preparation was mixed with 5 μL of a test compound; endogenous in cells
T1 sequence (Q9X6V3 1-646): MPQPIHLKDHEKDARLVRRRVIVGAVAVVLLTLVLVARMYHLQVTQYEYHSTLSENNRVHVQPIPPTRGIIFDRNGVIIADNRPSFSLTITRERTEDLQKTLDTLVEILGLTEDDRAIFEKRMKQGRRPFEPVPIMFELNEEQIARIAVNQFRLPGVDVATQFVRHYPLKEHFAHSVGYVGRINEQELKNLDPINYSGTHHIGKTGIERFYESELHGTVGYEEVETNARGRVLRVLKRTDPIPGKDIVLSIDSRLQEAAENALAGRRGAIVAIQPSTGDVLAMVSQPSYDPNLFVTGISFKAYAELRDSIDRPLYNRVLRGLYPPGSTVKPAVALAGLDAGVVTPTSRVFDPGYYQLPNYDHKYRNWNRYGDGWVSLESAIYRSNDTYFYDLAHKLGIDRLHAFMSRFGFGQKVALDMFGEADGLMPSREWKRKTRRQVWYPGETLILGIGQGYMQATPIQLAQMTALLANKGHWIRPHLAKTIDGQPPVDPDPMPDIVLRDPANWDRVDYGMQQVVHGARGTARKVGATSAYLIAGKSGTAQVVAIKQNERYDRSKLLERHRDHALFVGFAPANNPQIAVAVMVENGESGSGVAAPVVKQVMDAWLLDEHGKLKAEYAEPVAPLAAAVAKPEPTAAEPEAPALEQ

[3] = test system: Enterococcus faecalis; experiment: MIC, Enterococcus faecalis; type: cell-based
Source text: (§1) Bacterial isolates were subjected to broth microdilution susceptibility testing, performed according to Clinical and Laboratory Standards Institute (CLSI) methods ([46]), using panels prepared in-house. Meropenem was purchased from Sandoz, and all other antibiotics were from Sigma-Aldrich. Xeruborbactam was synthesized at Qpex Biopharma, San Diego, CA. Avibactam was purchased from eNovation Chemicals LLC, Bridgewater, NJ, USA; zidebactam was from MedKoo Biosciences, Inc., Morrisville, NC, and nacubactam was from Advanced ChemBlocks, Hayward, CA. Durlobactam was synthesized at Acme Bioscience, Palo Alto, CA, USA.

[4] = molecular target: T2, PBP1a (Pseudomonas aeruginosa, UniProt Q07806); experiment: Gel-based Bocillin FL competition PBP binding assay; settings: P. aeruginosa PAM3034 membranes; Bocillin FL step 0°C for xeruborbactam, 30°C for beta-lactams; read-out: Relative binding IC50, PBP1a
T2 construct: endogenous in cells
T2 sequence (Q07806 whole entry): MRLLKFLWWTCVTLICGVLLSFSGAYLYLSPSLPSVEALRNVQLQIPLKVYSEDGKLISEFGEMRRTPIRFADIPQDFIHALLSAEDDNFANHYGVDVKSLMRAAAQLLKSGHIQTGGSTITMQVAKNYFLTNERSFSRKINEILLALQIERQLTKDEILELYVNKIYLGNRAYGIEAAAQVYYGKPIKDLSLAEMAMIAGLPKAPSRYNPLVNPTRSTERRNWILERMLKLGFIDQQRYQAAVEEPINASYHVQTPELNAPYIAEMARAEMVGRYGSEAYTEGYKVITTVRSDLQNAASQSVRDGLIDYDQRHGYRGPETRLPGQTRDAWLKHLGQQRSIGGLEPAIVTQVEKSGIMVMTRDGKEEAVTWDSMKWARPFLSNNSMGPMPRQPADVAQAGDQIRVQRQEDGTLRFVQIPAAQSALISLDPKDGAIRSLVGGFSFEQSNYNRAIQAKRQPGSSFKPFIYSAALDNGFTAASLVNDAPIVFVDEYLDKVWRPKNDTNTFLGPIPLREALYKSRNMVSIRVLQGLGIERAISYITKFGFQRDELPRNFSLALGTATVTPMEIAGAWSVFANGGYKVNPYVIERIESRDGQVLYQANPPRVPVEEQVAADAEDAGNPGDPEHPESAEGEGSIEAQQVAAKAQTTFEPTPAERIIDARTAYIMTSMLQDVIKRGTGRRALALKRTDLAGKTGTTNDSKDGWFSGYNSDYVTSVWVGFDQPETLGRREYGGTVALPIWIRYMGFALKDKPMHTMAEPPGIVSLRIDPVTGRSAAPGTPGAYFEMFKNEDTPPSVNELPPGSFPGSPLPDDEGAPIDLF
Protocol: (§2) Ten milliliters of overnight bacterial culture was inoculated in 1 L of LB medium and grown to an OD600 of 0.7 to 0.9. The cell pellet was washed once with 50 mL of solution containing 100 mM Na-phosphate at pH 7.0 and 100 mM NaCl and resuspended in 10 mL of the same buffer with one tablet of EDTA-free mini-protease inhibitor and 10 mg of lysozyme. Cell suspensions were incubated for 45 min at 37°C, and then 200 μL of DNase I was added along with MgSO4 (to a final concentration of 10 mM), followed by three cycles of freeze-thawing (10 min and 20 min, respectively). Four cycles of sonication at maximum power were performed next, each cycle lasting for 30 s with 1 min on ice between cycles. The cell suspension was centrifuged at 12,000 × g for 10 min at 4°C. The supernatant was collected and centrifuged at 100,000 × g for 45 min at 4°C. The pellet was washed three times with 10 mL of 100 mM Na-phosphate, pH 7.0, by resuspension and subsequent centrifugation at 100,000 × g for 10 min at 4°C. The pellet was finally resuspended in 1.5 mL of 100 mM Na-phosphate, pH 7.0, and passed several times through a Dounce homogenizer (tight pestle). Membrane preparations were aliquoted and kept at −80°C.
(§3) Five microliters of total bacterial membrane preparation was mixed with 5 μL of a test compound at a desired concentration in 100 mM Na-phosphate buffer, pH 7.0. Incubation of bacterial membrane preparations with control beta-lactams was performed for 10 min at 30°C; xeruborbactam was incubated with membrane preparations for 1 h at 30°C. Five microliters of 150 μM Bocillin FL fluorescent probe (Thermo Fisher Scientific) was added, and the reaction mixture was incubated for an additional 10 min at 30°C in the case of beta-lactams or for 20 min on ice (0°C) in the case of xeruborbactam. […] At the end of the incubation step, 15 μL of 2× SDS sample loading buffer was added, and the reaction mixture was incubated for 5 min at 95°C. Twenty-five microliters of the reaction mixture was then loaded on an 8% SDS Tris-glycine gel (Thermo Fisher Scientific). At the end of the run, the gel was briefly rinsed with water and fixed in 10% acetic acid, 40% methanol for 20 min. After an additional wash in water for 30 min, the gel was scanned on a Typhoon Trio+ Imager using a blue laser filter (excitation, 488 nm, and emission, 520 nm). Densitometry of the gel images was performed using ImageQuant software (Molecular Dynamics). IC50 values were calculated with Prism software (GraphPad).

[5] = test system: PBP1b; parameters: method as in earlier work; settings: value in parentheses; A. baumannii ATCC 19606; cited from earlier work
[6] = test system: strain KPM1026a of K. pneumoniae; experiment: Minimal bactericidal concentration (MBC), K. pneumoniae; type: cell-based; settings: Klebsiella pneumoniae
[7] = test system: Enterobacter cloacae species complex; experiment: Broth microdilution MIC (CLSI), Enterobacter cloacae; type: cell-based; settings: for MIC: Enterobacter cloacae
Source text: as §1

[8] = test system: strain ECM5497 of E. coli; experiment: Minimal bactericidal concentration (MBC), E. coli; type: cell-based; settings: Escherichia coli
[9] = test system: strain PAM1154 of P. aeruginosa; experiment: Minimal bactericidal concentration (MBC), P. aeruginosa; type: cell-based; settings: Pseudomonas aeruginosa
[10] = molecular target: T3, PBP3 (Pseudomonas aeruginosa, UniProt G3XD46); experiment: Gel-based Bocillin FL competition PBP binding assay; settings: P. aeruginosa PAM3034 membranes; Bocillin FL step 0°C for xeruborbactam, 30°C for beta-lactams; read-out: Relative binding IC50, PBP3
T3 construct: endogenous in cells
T3 sequence (G3XD46 whole entry): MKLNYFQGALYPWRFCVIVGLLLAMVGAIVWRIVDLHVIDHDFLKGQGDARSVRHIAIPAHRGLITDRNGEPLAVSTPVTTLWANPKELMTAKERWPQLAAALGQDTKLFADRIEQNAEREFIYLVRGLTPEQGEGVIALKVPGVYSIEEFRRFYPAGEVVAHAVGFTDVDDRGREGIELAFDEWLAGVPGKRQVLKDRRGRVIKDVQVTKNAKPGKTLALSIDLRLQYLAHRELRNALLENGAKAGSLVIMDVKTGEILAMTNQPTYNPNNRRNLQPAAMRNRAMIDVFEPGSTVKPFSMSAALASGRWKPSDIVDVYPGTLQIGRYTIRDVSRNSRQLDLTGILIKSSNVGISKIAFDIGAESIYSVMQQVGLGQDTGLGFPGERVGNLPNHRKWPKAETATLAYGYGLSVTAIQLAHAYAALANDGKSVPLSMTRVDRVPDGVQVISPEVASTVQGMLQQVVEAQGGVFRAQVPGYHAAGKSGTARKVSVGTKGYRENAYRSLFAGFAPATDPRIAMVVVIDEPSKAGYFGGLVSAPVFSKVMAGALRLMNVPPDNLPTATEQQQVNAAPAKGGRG
Protocol: as §2, §3

[11] = molecular target: T1, PBP2; experiment: as above; settings: P. aeruginosa PAM3034 membranes; Bocillin FL step 0°C for xeruborbactam, 30°C for beta-lactams; read-out: Relative binding IC50, PBP2
Protocol: as §2, §3

[12] = test system: K. pneumoniae strain KPM1026a
Protocol: Beta-lactamase-negative strains of E. coli (strain ECM5497), A. baumannii (strain AB1007), and K. pneumoniae (strain KPM1026a) were used in resistance development studies. […] Colonies were incubated for 24 h at 37°C before the frequency of resistance emergence was calculated as the ratio of the number of CFU grown on the xeruborbactam-containing plate over the number of CFU recorded for xeruborbactam-free plates. Single colonies from xeruborbactam-containing plates were grown twice on a nonselective medium before their antimicrobial-resistance levels were assessed. For K. pneumoniae KPM1026a, several independent cultures were used in resistance studies.

[13] = Enterobacter cloacae species complex, 45 isolates

Sequence of PBP1a (Klebsiella pneumoniae, UniProt A0A0H3GZF1) (A0A0H3GZF1 entry or part of it): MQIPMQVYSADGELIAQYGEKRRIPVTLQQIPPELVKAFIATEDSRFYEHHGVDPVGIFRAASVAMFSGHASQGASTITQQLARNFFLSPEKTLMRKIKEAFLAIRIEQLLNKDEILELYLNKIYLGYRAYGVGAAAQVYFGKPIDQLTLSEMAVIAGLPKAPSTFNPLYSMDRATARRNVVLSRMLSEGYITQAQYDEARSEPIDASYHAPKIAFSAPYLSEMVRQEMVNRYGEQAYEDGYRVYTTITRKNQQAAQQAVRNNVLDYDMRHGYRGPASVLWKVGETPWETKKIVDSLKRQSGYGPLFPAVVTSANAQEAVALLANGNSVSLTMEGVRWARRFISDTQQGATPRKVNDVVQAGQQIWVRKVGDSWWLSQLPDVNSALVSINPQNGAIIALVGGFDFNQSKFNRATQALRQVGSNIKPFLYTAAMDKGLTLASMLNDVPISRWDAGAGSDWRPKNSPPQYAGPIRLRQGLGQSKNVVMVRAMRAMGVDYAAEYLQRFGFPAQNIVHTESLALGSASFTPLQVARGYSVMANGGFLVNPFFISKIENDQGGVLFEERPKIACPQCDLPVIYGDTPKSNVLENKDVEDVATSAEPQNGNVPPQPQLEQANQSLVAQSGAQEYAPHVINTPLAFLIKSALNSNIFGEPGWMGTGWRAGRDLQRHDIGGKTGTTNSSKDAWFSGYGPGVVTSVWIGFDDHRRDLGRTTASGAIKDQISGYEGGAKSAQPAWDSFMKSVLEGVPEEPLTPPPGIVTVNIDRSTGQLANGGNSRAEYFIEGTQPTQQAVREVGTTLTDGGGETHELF

Row | Compound | MIC ([3]; efs003) [µg/mL] | MIC ([3]; efs004) [µg/mL] | MIC ([3]; efs005) [µg/mL] | MIC ([3]; efs006) [µg/mL] | MIC ([3]; efs007) [µg/mL] | MIC ([3]; efs026) [µg/mL] | MIC ([3]; efs071) [µg/mL] | MIC ([3]; efs072) [µg/mL] | MIC ([3]; efs073) [µg/mL] | MIC ([3]; efs090) [µg/mL] | MIC ([3]; efs091) [µg/mL] | MIC ([3]; efs092) [µg/mL] | MIC ([3]; efs093) [µg/mL] | MIC ([3]; efs094) [µg/mL] | MIC ([3]; efs095) [µg/mL] | MIC ([3]; efs096) [µg/mL] | other results
1 | C[C@@H](O)[C@H]1C(=O)N2C(C(=O)O)=C(S[C@@H]3CN[C@H](C(=O)N(C)C)C3)[C@H](C)[C@H]12 [Meropenem] | 2 (≈ 5.22 µM) | 4 (≈ 10.4 µM) | 4 (≈ 10.4 µM) | 2 (≈ 5.22 µM) | 4 (≈ 10.4 µM) | 2 (≈ 5.22 µM) | 4 (≈ 10.4 µM) | 2 (≈ 5.22 µM) | 4 (≈ 10.4 µM) | 1 (≈ 2.61 µM) | 1 (≈ 2.61 µM) | 8 (≈ 20.9 µM) | 16 (≈ 41.7 µM) | > 32 | 4 (≈ 10.4 µM) | 4 (≈ 10.4 µM) | IC50 [1]: 5200 nM; IC50 [2]: 50 nM; IC50 [4]: 170 nM; IC50 [5]: 500 nM
2 | O=C(O)c1c(F)ccc2c1OB(O)[C@@H]1C[C@H]21 [Xeruborbactam] | > 32 | > 32 | > 32 | > 32 | > 32 | > 32 | > 32 | > 32 | > 32 | > 32 | > 32 | > 32 | > 32 | > 32 | > 32 | > 32 | MBC [6]: 16 µg/mL (≈ 72.1 µM); MIC50 [7, 13]: 16 µg/mL (≈ 72.1 µM); MIC90 [7, 13]: 32 µg/mL (≈ 144 µM); MIC range [7, 13]: 4 to 64 µg/mL; MIC ([7]; Enterobacter cloacae species complex isolates, read-out: highest MIC observed): 64 µg/mL (≈ 288 µM); MIC ([7]; clinical isolate ECL1057, OmpK35 FN, OmpK36 NF, read-out: MIC): 64 µg/mL (≈ 288 µM); MIC ([7]; clinical isolate ECL1079, OmpK35 NF, OmpK36 NF, read-out: MIC): 64 µg/mL (≈ 288 µM); MIC ([7]; clinical isolate ECL1126, OmpK35 FN, OmpK36 FN, read-out: MIC): 16 µg/mL (≈ 72.1 µM); MIC ([7]; clinical isolate ECL1131, OmpK35 NF, OmpK36 FN, read-out: MIC): 16 µg/mL (≈ 72.1 µM); MBC [8]: 8 µg/mL (≈ 36 µM); MBC [9]: 32 µg/mL (≈ 144 µM); MIC ([3]; all the E. faecalis strains, n = 16): > 32 µg/mL; IC50 [10]: 510000 ± 120000 nM; IC50 [11]: 370000 ± 120000 nM; frequency of resistance (FOR) ([12]; at 2× MIC): 2 × 10^−8; frequency of resistance (FOR) ([12]; at 4× MIC): < 3 × 10^−9

— article PMC9578396, “Intrinsic Antibacterial Activity of Xeruborbactam In Vitro: Assessing Spectrum and Mode of Action” (Antimicrobial Agents and Chemotherapy, 2022)
